{"source": "patent US7202239B2", "about": "“Cyclohexylphenyl carboxamides tocolytic oxytocin receptor antagonists” (Wyeth, priority 2001, dated 2007)", "note": "pIC50: −log10 of the molar value.", "data": [{"biological_target": "T1, human oxytocin receptor (Homo sapiens, UniProt P30559)", "T1 sequence (P30559 1-389)": "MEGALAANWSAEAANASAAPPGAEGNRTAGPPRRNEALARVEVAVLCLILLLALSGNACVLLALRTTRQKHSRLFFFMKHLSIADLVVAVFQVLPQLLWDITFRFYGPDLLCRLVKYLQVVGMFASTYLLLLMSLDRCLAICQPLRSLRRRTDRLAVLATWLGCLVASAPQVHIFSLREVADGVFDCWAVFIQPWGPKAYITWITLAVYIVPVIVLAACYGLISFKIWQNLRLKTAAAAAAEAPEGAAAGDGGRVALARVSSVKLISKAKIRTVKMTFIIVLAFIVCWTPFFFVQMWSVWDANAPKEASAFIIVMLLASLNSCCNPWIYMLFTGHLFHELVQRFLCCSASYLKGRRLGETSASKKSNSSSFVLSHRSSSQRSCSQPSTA", "experiment": "Oxytocin binding in CHO cell membranes expressing human oxytocin receptors", "conditions": "100 nM, [3H]oxytocin", "excerpt": "(§1) Oxytocin Binding in Chinese Hamster Ovary Cell Membranes Expressing Human Oxytocin Receptors\n(§2) Chinese Hamster Ovary (CHO) cells stably transfected with the human oxytocin receptor (cf. Tanizawa et al., U.S. Pat. No. 5,466,584 (1995) to Rohto Pharmaceutical Co. Ltd., Osaka, Japan) were obtained from M. Thibonnier, Case Western Reserve University School of Medicine, Cleveland, Ohio. A. Passaging and Amplification of Cells: CHO cells transfected with the human oxytocin receptors obtained from M. Thibonnier (pcDNA3.1 vector) are allowed to grow to confluency (approx. >90%) in T-150 flasks under sterile conditions, in a cell culture medium of F-12 Nutrient Mixture (HAM) with L-glutamine (Gibco Cat. # 11765-054) containing 15 mM HEPES (Gibco Cat. # 15630-080), 1% antibiotic/antimycotic (add 5 mL 100×, Gibco Cat. # 15240-062 per 500 mL F-12), 400 μg/mL of Geneticin (add 4 mL of 50 mg/mL per 500 mL F-12) and 10% Fetal Bovine Serum (Qualified, heat inactivated, Gibco Cat. # 16140-063). The medium is removed by aspiration and the cells are washed with 10 mL of Hank's Balanced Salt solution (Gibco Cat. # 14175-095). The salt solution is removed by aspiration and the cells trypsinized with 5 mL of trypsin-EDTA (0.05% trypsin, 0.53 mM EDTA-4Na, Gibco Cat. # 25300-070) for 1 min The trypsin is removed by aspiration and the cells dislodged by tapping. Cell Culture medium (e.g. 30 mL for 1:30 split) is immediately added and mixed well to inactivate trypsin. 1 mL of detached cells is added to new culture flasks containing fresh Cell Culture medium (e.g. into 25 mL per T-150 flask), and mixed gently. The cells are incubated at 37° C. in 5% CO2. The medium is changed at 3 to 4 days interval (or as appropriate). The cells grow to confluency (approx. >75%–95%) within 7–8 days. All steps are done under sterile conditions. B. Membrane Preparation: The cells are washed twice gently with Hank's Balanced Salt solution (eg, use 10 mL per T-150 flask). The excess solution is removed and the cells bathed for 15–30 min. in an enzyme-free Cell Dissociation Buffer (eg, use 8 mL Hank's Based, Gibco Cat. # 13150-016 per T-150 flask) until cells are loosened. The contents are transferred to centrifuge tubes (50 mL size) kept in ice bath. All subsequent steps are done at 4° C. The tubes are centrifuged at 300×g for 15 min (1380 rpm on SORVAL, Model RT6000D, using rotor for 50 mL tubes). The supernatant is discarded and the cells suspended in homogenizing buffer (10 mM Tris-HCl containing 0.25 M sucrose and 1 mM EDTA, pH 7.4) ensuring that the volume of the buffer is about ten times the volume of the cell pellet. The cells are pooled into a centrifuge tube (50 mL) and homogenized with a Polytron at setting 6 for 10 sec. The homogenate is transferred into a Potter-Elvjehm homogenizer and homogenized with 3 strokes. The homogenate is centrifuged at 1500×g for 10 min at 4° C. (3100 rpm using SORVAL, model RT6000D, using rotor for 50 mL tubes). The pellet is discarded. The supernatant is centrifuged at 100,000×g for 60 min. at 4° C. (Beckman L8-80M ultracentrifuge; spin at 37,500 rpm with rotor type 70 Ti for 50 mL tubes; 38,000 rpm with type 80Ti for 15 mL tubes; or 35,800 rpm with rotor type 45Ti). The supernantant is discarded and the pellet suspended in 3 to 4 mL of Tris buffer (50 mM TRIS-HCl, pH 7.4). The protein content is estimated by the Bradford or Lowry method. The volume of the membrane suspension is adjusted with the membrane buffer (50 mM Tris-HCl containing 0.1% BSA and 0.1 mM PMSF) to give 3.0 mg/mL (or as appropriate) of protein. The membranes are aliquoted and stored at −70° C. C. Radioligand Binding Assay: In wells of a 96-well format microtiter plate, is added 90, 110 or 130 μL (to make up a final volume of 200 μL) of assay buffer containing 50 mM of Tris-HCl (pH 7.4), […], 1 mg % aprotinin, 1 mg % leupeptin, 2 mg % 1,10-phenanthroline, 10 mg % trypsin inhibitor, and 0.1 mM PMSF. […]", "units": {"OT % inhibition at 100 nM": "%"}, "values": [{"smiles": "CN1CCN(C(=O)C(=O)c2ccc3n2Cc2ccccc2N(C(=O)c2ccc(C4CCCCC4)cc2)C3)CC1", "note": "[Example 32, 1-[10-(4-Cyclohexyl-benzoyl)-10,11-dihydro-5H-pyrrolo[2,1-c][1,4]benzodiazepin-3-yl]-2-(4-methyl-1-piperazin-1-yl)-1,2-ethane-1,2-dione]", "OT % inhibition at 100 nM": 87}, {"smiles": "CN(C)[C@@H]1CCN(C(=O)c2ccc3n2Cc2ccccc2N(C(=O)c2ccc(C4CCCCC4)cc2)C3)C1", "note": "[Example 47, [10-(4-Cyclohexyl-benzoyl)-10,11-dihydro-5H-pyrrolo[2,1-C][1,4]benzodiazepin-3-yl][(3R)-3-(dimethylamino)pyrrolidinyl]methanone]", "OT % inhibition at 100 nM": 82}, {"smiles": "O=C(c1ccc(C2CCCCC2)cc1)N1Cc2ccc(C(=O)N3CCC[C@H]3CN3CCCC3)n2Cc2ccccc21", "note": "[Example 46, [10-(4-Cyclohexyl-benzoyl)-10,11-dihydro-5H-pyrrolo[2,1-c][1.4]benzodiazepin-3-yl][(2S)-2-(1-pyrrolidinylmethyl)pyrrolidinyl]methanone]", "OT % inhibition at 100 nM": 91}]}, {"biological_target": "T1, human oxytocin receptor", "experiment": "Oxytocin binding in CHO cell membranes expressing human oxytocin receptors", "conditions": "100 nM, [3H]oxytocin, read-out: OT % inhibition at 100 nM", "excerpt": "as §1, §2", "units": {"inhibition at 0.1 µM": "%"}, "values": [{"smiles": "COC(=O)c1ccc2c(c1)N(C(=O)c1ccc(C3CCCCC3)cc1)Cc1ccc(C(=O)N3CCN(C)CC3)n1C2.Cl", "note": "[Example 1, Methyl 10-(4-cyclohexylbenzoyl)-3-[(4-methyl-1-piperazinyl)carbonyl]-10,11-dihydro-5H-pyrrolo[2,1-c][1,4]benzodiazepine-8-carboxylate hydrochloride salt]", "inhibition at 0.1 µM": 14}, {"smiles": "O=C(NCc1ccncc1)c1ccc2n1Cc1ccccc1N(C(=O)c1ccc(C3CCCCC3)cc1)C2", "note": "[Example 53, 10-(4-Cyclohexyl-benzoyl)-N-(4-pyridinylmethyl)-10,11-dihydro-5H-pyrrolo[2,1-c][1,4]benzodiazepine-3-carboxamide]", "inhibition at 0.1 µM": 25}, {"smiles": "CN1CCCC1CCNC(=O)c1ccc2n1Cc1ccccc1N(C(=O)c1ccc(C3CCCCC3)cc1)C2", "note": "(centres unmarked) [Example 38, 10-(4-Cyclohexyl-benzoyl)-N-[2-(1-methyl-2-pyrrolidinyl)ethyl]-10,11-dihydro-5H-pyrrolo[2,1-c][1,4]benzodiazepine-3-carboxamide]", "inhibition at 0.1 µM": 57}, {"smiles": "CN(Cc1cccnc1)C(=O)c1ccc2n1Cc1ccccc1N(C(=O)c1ccc(C3CCCCC3)cc1)C2", "note": "[Example 57, 10-(4-Cyclohexyl-benzoyl)-N-methyl-N-(3-pyridinylmethyl)-10,11-dihydro-5H-pyrrolo[2,1-c][1,4]benzodiazepine-3-carboxamide]", "inhibition at 0.1 µM": -4}, {"smiles": "C=CCN1CCN(C(=O)c2ccc3n2Cc2ccccc2N(C(=O)c2ccc(C4CCCCC4)cc2)C3)CC1", "note": "[Example 43, (4-Allyl-1-piperazinyl)[10-(4-cyclohexyl-benzoyl)-10,11-dihydro-5H-pyrrolo[2,1-c][1,4]benzodiazepin-3-yl]methanone]", "inhibition at 0.1 µM": 1}, {"smiles": "CC(C)N1CCN(C(=O)c2ccc3n2Cc2ccccc2N(C(=O)c2ccc(C4CCCCC4)cc2)C3)CC1", "note": "[Example 44, [10-(4-Cyclohexyl-benzoyl)-10,11-dihydro-5H-pyrrolo[2,1-c][1,4]benzodiazepin-3-yl](4-isopropyl-1-piperazinyl)methanone]", "inhibition at 0.1 µM": 2}, {"smiles": "O=C(NCCN1CCCCC1)c1ccc2n1Cc1ccccc1N(C(=O)c1ccc(C3CCCCC3)cc1)C2", "note": "[Example 37, 10-(4-Cyclohexyl-benzoyl)-N-[2-(1-piperidinyl)ethyl]-10,11-dihydro-5H-pyrrolo[2,1-c][1,4]benzodiazepine-3-carboxamide]", "inhibition at 0.1 µM": 61}, {"smiles": "O=C(c1ccc(C2CCCCC2)cc1)N1Cc2ccc(C(=O)C(Cl)(Cl)Cl)n2Cc2ccccc21", "note": "[Example 7, 2,2,2-Trichloro-1-[10-(4-cyclohexyl-benzoyl)-10,11-dihydro-5H-pyrrolo[2,1-c][1,4]benzodiazepin-3-yl]-1-ethanone]", "inhibition at 0.1 µM": 12}, {"smiles": "CN(C)CCCNC(=O)c1ccc2n1Cc1ccccc1N(C(=O)c1ccc(C3CCCCC3)cc1)C2", "note": "[Example 33, 10-(4-Cyclohexyl-benzoyl)-N-[3-(dimethylamino)propyl]-10,11-dihydro-5H-pyrrolo[2,1-c][1,4]benzodiazepine-3-carboxamide]", "inhibition at 0.1 µM": 66}, {"smiles": "O=C(NCCCn1ccnc1)c1ccc2n1Cc1ccccc1N(C(=O)c1ccc(C3CCCCC3)cc1)C2", "note": "[Example 36, 10-(4-Cyclohexyl-benzoyl)-N-[3-(1H-imidazol-1-yl)propyl]-10,11-dihydro-5H-pyrrolo[2,1-c][1,4]benzodiazepine-3-carboxamide]", "inhibition at 0.1 µM": 13}, {"smiles": "O=C(c1ccc(C2CCCCC2)cc1)N1Cc2ccc(C(=O)n3ccnc3)n2Cc2ccccc21", "note": "[Example 56, 1H-Imidazol-1-yl-[10-(4-cyclohexyl-benzoyl)-10,11-dihydro-5H-pyrrolo[2,1-c][1,4]benzodiazepin-3-yl]-methanone]", "inhibition at 0.1 µM": 61}, {"smiles": "O=C(NCc1ccccn1)c1ccc2n1Cc1ccccc1N(C(=O)c1ccc(C3CCCCC3)cc1)C2", "note": "[Example 50, 10-(4-Cyclohexyl-benzoyl)-N-(2-pyridinylmethyl)-10,11-dihydro-5H-pyrrolo[2,1-c][1,4]benzodiazepine-3-carboxamide]", "inhibition at 0.1 µM": -8}]}, {"biological_target": "T1, human oxytocin receptor", "experiment": "Oxytocin binding in CHO cell membranes expressing human oxytocin receptors", "conditions": "[3H]oxytocin, value in parentheses, read-out: OT (IC50)", "excerpt": "as §1, §2", "values": [{"smiles": "CC(=NNC(=O)c1ccc2n1Cc1ccccc1N(C(=O)c1ccc(C3CCCCC3)cc1)C2)N(C)C", "note": "[Example 9, N′-{[10-(4-Cyclohexyl-benzoyl)-10,11-dihydro-5H-pyrrolo[2,1-c][1,4]benzodiazepin-3-yl]carbonyl}-N,N-dimethylethanehydrazonamide]", "pIC50": 7.45}, {"smiles": "O=C(c1ccc2n1Cc1ccccc1N(C(=O)c1ccc(C3CCCCC3)cc1)C2)N1CCN(c2ncccn2)CC1", "note": "[Example 23]", "pIC50": 7.38}, {"smiles": "CN(C)C=NNC(=O)c1ccc2n1Cc1ccccc1N(C(=O)c1ccc(C3CCCCC3)cc1)C2", "note": "[Example 10, N′-{[10-(4-Cyclohexyl-benzoyl)-10,11-dihydro-5H-pyrrolo[2,1-c][1.4]benzodiazepin-3-yl]carbonyl}-N,N-dimethylhydrazonoformamide]", "pIC50": 7.12}, {"smiles": "O=C(c1ccc2n1Cc1ccccc1N(C(=O)c1ccc(C3CCCCC3)cc1)C2)N1CCC(N2CCCC2)CC1", "note": "[Example 25, [10-(4-Cyclohexyl-benzoyl)-10,11-dihydro-5H-pyrrolo[2,1-c][1,4]benzodiazepin-3-yl][4-(1-pyrrolidinyl)-1-piperidinyl]methanone]", "pIC50": 7.88}, {"smiles": "CC(=O)NNC(=O)c1ccc2n1Cc1ccccc1N(C(=O)c1ccc(C3CCCCC3)cc1)C2", "note": "[Example 11, N′-Acetyl-10-(4-cyclohexyl-benzoyl)-10,11-dihydro-5H-pyrrolo[2,1-c][1,4]benzodiazepine-3-carbonyl-hydrazide]", "pIC50": 7.28}]}]}
